Target: Metabotropic glutamate receptor 5 (Homo sapiens, UniProt P41594)
Test: Positive allosteric modulation of human mGlu5 receptor expressed in HEK293 cells by calcium mobilization assay

Sequence of Metabotropic glutamate receptor 5 (P41594 whole entry): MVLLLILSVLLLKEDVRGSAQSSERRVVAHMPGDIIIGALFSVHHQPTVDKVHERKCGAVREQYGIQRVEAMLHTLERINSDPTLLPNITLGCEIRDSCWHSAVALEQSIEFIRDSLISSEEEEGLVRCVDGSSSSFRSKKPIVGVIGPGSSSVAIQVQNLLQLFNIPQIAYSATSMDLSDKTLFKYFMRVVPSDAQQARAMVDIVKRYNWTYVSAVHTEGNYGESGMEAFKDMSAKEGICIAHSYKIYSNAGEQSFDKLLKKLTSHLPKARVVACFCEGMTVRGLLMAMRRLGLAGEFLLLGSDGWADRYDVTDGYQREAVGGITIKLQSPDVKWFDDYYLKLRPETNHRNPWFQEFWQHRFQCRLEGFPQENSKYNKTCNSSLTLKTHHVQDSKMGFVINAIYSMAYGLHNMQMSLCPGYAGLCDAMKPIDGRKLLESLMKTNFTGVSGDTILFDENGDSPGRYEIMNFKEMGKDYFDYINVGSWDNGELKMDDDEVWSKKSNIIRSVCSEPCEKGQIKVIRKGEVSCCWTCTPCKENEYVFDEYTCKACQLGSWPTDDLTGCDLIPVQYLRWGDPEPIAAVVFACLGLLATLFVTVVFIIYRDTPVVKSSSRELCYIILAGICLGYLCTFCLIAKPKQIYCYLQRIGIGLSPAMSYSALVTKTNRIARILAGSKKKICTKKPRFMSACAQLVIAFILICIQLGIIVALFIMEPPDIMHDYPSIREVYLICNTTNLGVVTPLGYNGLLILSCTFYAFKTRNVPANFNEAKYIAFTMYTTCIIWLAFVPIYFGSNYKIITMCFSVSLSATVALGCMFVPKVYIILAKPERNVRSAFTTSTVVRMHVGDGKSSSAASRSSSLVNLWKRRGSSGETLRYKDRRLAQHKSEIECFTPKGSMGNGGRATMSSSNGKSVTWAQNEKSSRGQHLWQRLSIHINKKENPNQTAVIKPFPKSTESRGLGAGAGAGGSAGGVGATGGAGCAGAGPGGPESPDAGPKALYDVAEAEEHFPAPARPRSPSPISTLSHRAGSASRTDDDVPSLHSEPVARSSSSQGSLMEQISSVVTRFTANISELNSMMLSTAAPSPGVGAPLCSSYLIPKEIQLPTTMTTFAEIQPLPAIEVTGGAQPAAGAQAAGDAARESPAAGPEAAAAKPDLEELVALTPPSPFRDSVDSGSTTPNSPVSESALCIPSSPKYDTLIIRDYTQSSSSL

- EC50: 323 nM
Compound: O=C(c1c(F)cccc1F)N1CCc2nc(COc3cccc(F)c3)oc2C1

Source: BindingDB's records for doi:10.1016/j.bmcl.2015.06.096 (Vanderbilt University Medical Center, 2015)
